The source made the active and inactive calls. No rule for the calls is given here.

The target in this assay is Ubiquitin-conjugating enzyme E2 N (Homo sapiens) (UniProt P61088). The assay can be described thus: NMR detection of UBE2N ligand binding – biophysical, purified protein (AID 1552). The conditions noted are these: NMR binding to purified UBE2N.
Ubiquitin-conjugating enzyme E2 N (Homo sapiens), sequence (P61088 whole entry, looked up): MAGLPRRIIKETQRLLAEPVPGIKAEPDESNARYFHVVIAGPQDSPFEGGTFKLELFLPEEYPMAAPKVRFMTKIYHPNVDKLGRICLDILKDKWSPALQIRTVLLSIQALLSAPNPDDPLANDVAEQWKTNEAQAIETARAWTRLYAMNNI
For the compound `O=C(CSc1cccc2cccnc12)N1CCCC1`, the Kd was > 4 mM (inactive).
In the case of `O=C(O)CCc1ccc2c(c1)OCO2`, the Kd is > 4 mM (inactive).
For `O=C(O)C1CC(=O)N(Cc2ccc(F)cc2)C1` (configuration not stated), the Kd was > 4 mM (inactive).
In the case of `CNC(=O)c1ccc([N+](=O)[O-])cc1Cl`, the Kd was > 4 mM (inactive).
For `O=C(O)c1cccnc1Oc1ccccc1`, the Kd was > 4 mM (inactive).
`Cn1c(=O)cc(N2CCCCC2)[nH]c1=O`: the Kd was > 4 mM (inactive).
As for `CC(=O)Oc1ccc2c(c1OC(C)=O)OCC1(O)Cc3c(cc(OC(C)=O)c(OC(C)=O)c3OC(C)=O)C21` (configuration not stated), the figure is > 4 mM (inactive); as for `c1ccc(Cc2nnc3sc(-c4ccccn4)nn23)cc1`, > 4 mM (inactive).
As for `CC(C)c1c(O)ccc2c1CCC1C(C)(C)CCC[C@]21C` (some centres not stated), the figure is > 4 mM (inactive).
As for `COc1ccc(C2(C)CC(=O)NC2=O)cc1` (configuration not stated), the figure is > 4 mM (inactive); as for `O=S1(=O)CCC2CC=CCC21` (configuration not stated), > 4 mM (inactive).
Consider `O=C1NC(=O)/C(=C\c2ccncc2)S1`, for which the Kd is > 4 mM (inactive).
To `NC(=O)c1ccccc1NC(=O)C1CCCO1` (configuration not stated) belongs > 4 mM (inactive); to `Cn1cccc1C(=S)N1CCOCC1`, > 4 mM (inactive); to `O=C(O)c1ccc2snnc2c1`, > 4 mM (inactive).
On to `Cc1ccc(C)c(S(=O)(=O)NCc2cccnc2)c1`, for which the Kd was > 4 mM (inactive).
To `CC(=O)NC(=S)Nc1ccccc1C(N)=O` belongs > 4 mM (inactive).
In the case of `NC(=O)c1c[nH]c2ccccc12`, the Kd is > 4 mM (inactive).
As for `O=C(c1ccc2c(c1)OCO2)N1CCC2(CC1)OCCO2`, the Kd is > 4 mM (inactive).
With `O=C(Nc1nnc(-c2ccco2)o1)C1=COCCO1`, the Kd is > 4 mM (inactive).
To `O=C1COc2ccc(C(=O)c3ccccc3)cc2CN1` belongs > 4 mM (inactive); to `Oc1ccccc1-c1nnco1`, > 4 mM (inactive); to `O=C(Nc1ccccc1)C(=O)NC1CC1`, > 4 mM (inactive).
As for `COC(=O)C[C@H]1C(C)(C)C(OC(C)=O)[C@]2(O)C=C3C(CC[C@]4(C)C3CC(=O)O[C@H]4c3ccoc3)C1(C)C2=O` (some centres not stated), the figure is > 4 mM (inactive); as for `NCc1ccc(S(N)(=O)=O)cc1`, > 4 mM (inactive); as for `CC1=C(C(N)=O)C(c2ccccc2)NC(=O)N1` (configuration not stated), > 4 mM (inactive).
As for `Cc1cc(C)n(-c2cccc3cccnc23)n1`, the figure is > 4 mM (inactive); as for `CC1=C(C(=O)Nc2ccccc2)SCCO1`, > 4 mM (inactive).
On to `O=C(c1ccc(Cl)s1)N1CCOCC1`, for which the Kd is > 4 mM (inactive).
On to `O=c1cc(-c2ccc(O)cc2)[nH]c(=S)[nH]1`, for which the Kd is > 4 mM (inactive).
As for `CS(=O)(=O)N1CCN(C(=O)c2ccccc2)C1`, the figure is > 4 mM (inactive); as for `Nc1ccc2c(c1)OCO2`, > 4 mM (inactive); as for `NC(=O)c1cc(N)ccc1N1CCCCC1`, > 4 mM (inactive).
Take `O=C(O)c1ccc(NCc2cccnc2)cc1`: the Kd was > 4 mM (inactive).
As for `CC(=O)NN1C(=O)c2cccc3cccc(c23)C1=O`, the figure is > 4 mM (inactive); as for `Cc1cn(C(=O)CN2C(=O)c3ccccc3C2=O)c(C)n1`, > 4 mM (inactive).
Turning to `C=CCn1c(-c2ccc(O)cc2)n[nH]c1=S`, the Kd is > 4 mM (inactive).
As for `Cc1noc(C)c1C(=O)Nc1ccc2c(c1)CCC2`, the figure is > 4 mM (inactive).
Take `CC1(C)Oc2ccc(N)cc2O1`: the Kd was > 4 mM (inactive).
To `Cc1nn2c(nc1=O)SCC(c1ccccc1)=N2` belongs > 4 mM (inactive); to `CCC(C)OC1CCS(=O)(=O)C1` (configuration not stated), > 4 mM (inactive); to `CN1C(=O)c2ccc(C(=O)NC3CCCCC3)cc2C1=O`, > 4 mM (inactive).
With `COc1c(OC)c2occc2c2oc(=O)ccc12`, the Kd was > 4 mM (inactive).
To `ON=c1ccc2nc3ccccc3nc2cc1` belongs > 4 mM (inactive); to `C(=N\c1ncn[nH]1)/c1cccs1`, > 4 mM (inactive).
Take `CC[C@]12CCCN3CCc4c(n(c5ccccc45)[C@](O)(C(=O)OC)C1)[C@@H]32`: the Kd is > 4 mM (inactive).
Take `CC12CCC3C(CC3(C)C)C(C)(CCC1=O)O2` (configuration not stated): the Kd was > 4 mM (inactive).
To `O=C(Oc1ccc(-c2nnco2)cc1)N1CCCCC1` belongs > 4 mM (inactive); to `CCOC(=O)c1ccc(F)cc1F`, > 4 mM (inactive).
As for `O=C(c1ccc(N2CCNCC2)cc1)c1cccnc1`, the figure is > 4 mM (inactive); as for `NC(=O)CC1Sc2ccccc2NC1=O` (configuration not stated), > 4 mM (inactive); as for `O=C(Cc1ccccc1)Nc1c[nH]c(=O)[nH]c1=O`, > 4 mM (inactive).
On to `Cc1nc2cc(NC(=O)Nc3nccs3)ccc2n1C`, for which the Kd was > 4 mM (inactive).
With `NC(=O)c1ccc(-c2csnn2)cc1`, the Kd was > 4 mM (inactive).
Regarding `Cc1nccc(-c2cccc(N)c2)n1`, the Kd is > 4 mM (inactive).
As for `Cc1nn(-c2ccccc2)nc1C(=O)O`, the figure is > 4 mM (inactive); as for `Cc1c(N=Cc2ccc[nH]2)c(=O)n(-c2ccccc2)n1C`, > 4 mM (inactive).
As for `COCC(=O)Nc1ccc(C)c(Cl)c1`, the Kd is > 4 mM (inactive).
For the compound `O=c1ccc2cc(O)c(O)cc2o1`, the Kd is > 4 mM (inactive).
Turning to `O=C(O)Cn1nc(-c2ccccc2)c2ccccc2c1=O`, the Kd was > 4 mM (inactive).
For `CC(=O)O[C@H]1C[C@@H](OC(C)=O)C(C)(C)C2C[C@@H](OC(C)=O)[C@@]3(C)C4=CC(=O)O[C@@H](c5ccoc5)[C@]4(C)CCC3[C@]21C` (some centres not stated), the Kd is > 4 mM (inactive).
To `CC1=CC2C(CC1=O)C(C)=CCC2C(C)C` (configuration not stated) belongs > 4 mM (inactive).
To `NC(=O)CSc1ccc(-c2ccccc2)nn1` belongs > 4 mM (inactive).
To `CC(C)Oc1ccc(NC(N)=O)cc1` belongs > 4 mM (inactive); to `O=C(OC[C@H]1O[C@H](OC(=O)c2cc(O)c(O)c(OC(=O)c3cc(O)c(O)c(O)c3)c2)[C@H](OC(=O)c2cc(O)c(O)c(OC(=O)c3cc(O)c(O)c(O)c3)c2)[C@@H](OC(=O)c2cc(O)c(O)c(OC(=O)c3cc(O)c(O)c(O)c3)c2)[C@@H]1OC(=O)c1cc(O)c(O)c(OC(=O)c2cc(O)c(O)c(O)c2)c1)c1cc(O)c(O)c(OC(=O)c2cc(O)c(O)c(O)c2)c1`, > 4 mM (inactive).
On to `O=C(O)c1ccccc1N1CCOCC1`, for which the Kd was > 4 mM (inactive).
To `O=C1NC(=S)NC(=O)C1=Cc1ccccc1O` belongs > 4 mM (inactive).
As for `COc1ccc(-c2coc3cc(O)ccc3c2=O)c(OC)c1`, the figure is > 4 mM (inactive); as for `O=C(Cc1cccs1)Nc1ccon1`, > 4 mM (inactive).
Turning to `Cc1cc(=O)cc(C)n1-c1ccccc1N1CCOCC1`, the Kd was > 4 mM (inactive).
To `O=C1C2C3C=CC(C3)C2C(=O)N1CCO` (configuration not stated) belongs > 4 mM (inactive).
For the compound `Cc1ccc(SCc2cc(=O)n3[nH]c(C)nc3n2)cc1`, the Kd was > 4 mM (inactive).

By Kd is commonly meant a measure of binding affinity in units of concentration.

For the origin of these results see PubChem BioAssay AID1552 (Sanford-Burnham Center for Chemical Genomics, 2009).
